Columns and labels:
[1] = test system: Bacillus anthracis spores; set-up: species or system Hartley guinea pigs; details: guinea pig, in vivo
Bacillus anthracis Ames = test system: Bacillus anthracis Ames; set-up: species or system Swiss-Webster mice; details: mouse, in vivo

`O=C(O)c1cn(C2CC2)c2cc(N3CCNCC3)c(F)cc2c1=O` [ciprofloxacin] was tested. Which ED50 dose [1] did it give?
The ED50 dose was 3 mg/day.

What about the “protection at low dose 1.12 mg/day” value [1] of the same molecule?
The value was “non-protective”.

How did the animals protected (Bacillus anthracis Ames) turn out when AVP-21D9 was run?
The animals protected was 40%.

And the “protection, antibody alone” value ([1]; ip)?
The value was “provided protection and delayed the mean time of death”.
